# Experimental data published in patent US20240366731A1, “ORAL ALGAL OIL BASED GASTRO-INTESTINAL TRACT PERMEABLE PEPTIDE COMPOSITION” (CELAGENEX RESEARCH (INDIA) PVT. LTD., priority 2021, published 2024).
# “And” between values parts separate entries of the source, which are not always exact repeats. Equal values may be shown once.
# Test: Study of Composition-3 vs Januvia (Sitagliptin) vs Placebo in T2D adult patients with inadequate glycemic control, 04-week treatment
# Assay type: in vivo, human
# Procedure: A study of Composition-3 vs Januvia (Sitagliptin) vs Placebo in adult patients with inadequate glycemic control • 1. Composition-3—Oral insulin—8 mg • 2. Reference—Januvia (Sitagliptin)—100 mg • 3. Placebo
# The pivotal study was involved 36 patients divided in to 3 groups of 12 each randomized to 1:1:1 into three cohorts dosed with 8 mg of Composition-3at night, Januvia 100 mg (Sitagliptin) at night and placebo at night.
# Patient population-T2D adult patients above age of 21 years with inadequate glycemic control who were managing their condition with diet and metformin monotherapy.
# • HbA1c ≥7.5% on metformin ≥500 mg daily • At time of randomization, patients were treated for their diabetes by diet, exercise, and metformin (≥500 mg/day; any type and regimen). […] A negative urine pregnancy test was obtained during Visit 2 and at Visit 4 (prior to randomization). • Males and females of childbearing potential used two methods of contraception (double barrier method), one of which must be an acceptable barrier method from the time of screening to the last study visit
# • Patients who meet any of the following criteria was not eligible for this study. • Presence of any clinically significant endocrine disease according to the Investigator (euthyroid patients on replacement therapy was included if the dosage of thyroxine is stable for at least six weeks prior to Screening Visit). • Clinical diagnosis of Type 1 diabetes. • Presence or history of cancer within the past five years except for adequately treated localized basal cell skin cancer or in situ uterine cervical cancer. • Laboratory abnormalities at screening including: • 1. C-peptide <1.0 ng/mL. • 2. Positive pregnancy test in females of childbearing potential (at screening and start of run-in period). • 3. Abnormal serum thyrotropin (TSH) levels >1.5 times the upper limit of normal. • 4. Positive test for hepatitis B surface antigen and/or hepatitis C antibody. • 5. Positive test for HIV. • 6. Serum Cr >1.4 mg/dl in males, >1.3 mg/dl in females. • 7. Any relevant abnormality interfering with the efficacy or the safety assessments during study drug administration. • Use of the following medications: • 1. History of use of insulin for greater than one week in the last six months and any use of insulin in the last six weeks prior to randomization. • 2. Administration of anti-diabetic drugs other than metformin within four weeks prior to randomization visit. Administration of thyroid preparations or thyroxine within six weeks prior to screening visit. […] (Note: Alcohol abuse includes heavy alcohol intake as defined by >3 drinks per day or >14 drinks per week, or binge drinking). • Elevated liver enzymes (alanine transaminase (ALT), […], alkaline phosphatase) greater than two times the upper limit of normal at screening. • Very high triglyceride level (>500 mg/dL) at screening. • Any clinically significant electrocardiogram (ECG) abnormality at screening or cardiovascular disease. Clinically significant cardiovascular disease will include: • 1. History of stroke, transient ischemic attack, or myocardial infarction within six months prior to screening, • 2. History of or currently have New York Heart Associate Class II-IV heart failure prior to screening, or • 3. Uncontrolled hypertension defined as blood pressure ≥160 mmHg (systolic) or ≥100 mmHg (diastolic) at screening.
# • The primary endpoint of the study was to compare the efficacy of Composition-3 to Sitagliptin & placebo in improving glycaemic control as assessed by A1c over a 04-week treatment period, with a secondary endpoint of comparing Composition-3 to Sitagliptin & placebo in change from baseline in FPG at week 04 • 1. Change from Baseline in Haemoglobin A1c (A1C) at Week 04 [Time Frame: Baseline and Week 04] A1C was measured as the percentage of glycosylated haemoglobin. Change in A1C following 04 weeks of therapy (i.e., A1C at Week 04 minus A1C at baseline) • 2. […]
smiles,measurement,setting,value
N[C@@H](CC(=O)N1CCn2c(nnc2C(F)(F)F)C1)Cc1cc(F)c(F)cc1F [Sitagliptin],Mean A1c (HbA1c) % week 04,"group mean n = 12, Week 04",6.66%
same,Mean FPG (mg/dl) week 04,"group mean n = 12, Week 04",160.53 mg/dL
same,% Improvement A1c (HbA1c),"group mean n = 12, Week 04 vs baseline",14.7%
same,Mean A1c (HbA1c) % baseline,"group mean n = 12, baseline",7.81%
same,Mean FPG (mg/dl) baseline,"group mean n = 12, baseline",200.68 mg/dL
same,FPG (mg/dl) Week 04,"individual patient, Week 04, before breakfast",155.06 mg/dl and 159.18 mg/dl and 156.1 mg/dl and 150.54 mg/dl and 158.1 mg/dl and 166.66 mg/dl and 157.66 mg/dl and 164.78 mg/dl (2×) and 182.58 mg/dl and 152.06 mg/dl and 158.54 mg/dl
same,A1c (HbA1c) % Week 04,"individual patient, Week 04, dosed orally at night",6.6% (4×) and 6.8% (3×) and 6.5% (2×) and 6.4% (2×) and 7.3%
same,A1c (HbA1c) % Baseline,"individual patient, baseline, T2D patients on metformin",7.9% (2×) and 8% and 7.6% (2×) and 7.7% (3×) and 7.8% (3×) and 8.2%
same,FPG (mg/dl) Baseline,"individual patient, baseline, before breakfast",203.94 mg/dl (2×) and 207.5 mg/dl and 193.26 mg/dl (2×) and 196.82 mg/dl (3×) and 200.38 mg/dl (3×) and 214.62 mg/dl
